In ChEMBL document CHEMBL1158243, “Hydroxycornexistin: A New Phytotoxin from Paecilomyces variotii” (J Nat Prod, 1996):
The source made the active and inactive calls. The rule behind the calls is not given here.

Tests used:
Type in all cases: functional, organism-based
Sorghum bicolor [1] = assay: Herbicidal activity against Sorghum bicolor assessed as plant death at 15.63 ppm after 2 weeks
Ipomoea hederacea [2] = assay: Herbicidal activity against Ipomoea hederacea assessed as plant death at 31.25 ppm after 2 weeks
Avena sativa [3] = assay: Herbicidal activity against Avena sativa assessed as plant death at 15.63 ppm after 2 weeks
Zea mays [4] = assay: Herbicidal activity against Zea mays assessed as plant death at 7.81 ppm after 2 weeks
Amaranthus [5] = assay: Herbicidal activity against Amaranthus sp. assessed as plant death at 31.25 ppm after 2 weeks
Digitaria sanguinalis = assay: Herbicidal activity against Digitaria sanguinalis assessed as plant death at 7.81 ppm after 2 weeks
Amaranthus [6] = assay: Herbicidal activity against Amaranthus sp. assessed as plant death at 15.63 ppm after 2 weeks
Ipomoea hederacea [7] = assay: Herbicidal activity against Ipomoea hederacea assessed as plant death at 15.63 ppm after 2 weeks
Amaranthus [8] = assay: Herbicidal activity against Amaranthus sp. assessed as plant death at 7.81 ppm after 2 weeks
Triticum aestivum [9] = assay: Herbicidal activity against Triticum aestivum assessed as plant death at 7.81 ppm after 2 weeks
Avena sativa [10] = assay: Herbicidal activity against Avena sativa assessed as plant death at 31.25 ppm after 2 weeks
Sorghum bicolor [11] = assay: Herbicidal activity against Sorghum bicolor assessed as plant death at 7.81 ppm after 2 weeks
Triticum aestivum [12] = assay: Herbicidal activity against Triticum aestivum assessed as plant death at 15.63 ppm after 2 weeks
Xanthium strumarium [13] = assay: Herbicidal activity against Xanthium strumarium assessed as plant death at 7.81 ppm after 2 weeks
Ipomoea hederacea [14] = assay: Herbicidal activity against Ipomoea hederacea assessed as plant death at 7.81 ppm after 2 weeks
Avena sativa [15] = assay: Herbicidal activity against Avena sativa assessed as plant death at 7.81 ppm after 2 weeks
Abutilon theophrasti = assay: Herbicidal activity against Abutilon theophrasti assessed as plant death at 7.81 ppm after 2 weeks
Echinochloa crus-galli = assay: Herbicidal activity against Echinochloa crus-galli assessed as plant death at 7.81 ppm after 2 weeks
Fallopia convolvulus [16] = assay: Herbicidal activity against Fallopia convolvulus assessed as plant death at 15.63 ppm after 2 weeks
Setaria faberi [17] = assay: Herbicidal activity against Setaria faberi assessed as plant death at 7.81 ppm after 2 weeks
Sorghum bicolor [18] = assay: Herbicidal activity against Sorghum bicolor assessed as plant death at 31.25 ppm after 2 weeks
Zea mays [19] = assay: Herbicidal activity against Zea mays assessed as plant death at 15.63 ppm after 2 weeks
Fallopia convolvulus [20] = assay: Herbicidal activity against Fallopia convolvulus assessed as plant death at 31.25 ppm after 2 weeks
Xanthium strumarium [21] = assay: Herbicidal activity against Xanthium strumarium assessed as plant death at 31.25 ppm after 2 weeks
Setaria faberi [22] = assay: Herbicidal activity against Setaria faberi assessed as plant death at 15.63 ppm after 2 weeks

## C/C=C1/CC2=C(C(=O)OC2=O)[C@H](CCC)[C@H](O)C(=O)C[C@@H]1O
Sorghum bicolor [1]
  Activity: inactive
Ipomoea hederacea [2]
  Activity: inactive
Avena sativa [3]
  Activity: inactive
Zea mays [4]
  Activity: inactive
Amaranthus [5]
  Activity: inactive
Digitaria sanguinalis
  Activity: inactive
Amaranthus [6]
  Activity: inactive
Ipomoea hederacea [7]
  Activity: inactive
Amaranthus [8]
  Activity: inactive
Triticum aestivum [9]
  Activity: inactive
Avena sativa [10]
  Activity: Active
Sorghum bicolor [11]
  Activity: inactive
Triticum aestivum [12]
  Activity: inactive
Xanthium strumarium [13]
  Activity: inactive
Ipomoea hederacea [14]
  Activity: inactive
Avena sativa [15]
  Activity: inactive
Abutilon theophrasti
  Activity: inactive
Echinochloa crus-galli
  Activity: inactive

## CCC[C@H]1C2=C(C/C(=C/CO)[C@@H](O)CC(=O)[C@H]1O)C(=O)OC2=O
Sorghum bicolor [1]
  Activity: inactive
Zea mays [4]
  Activity: inactive
Fallopia convolvulus [16]
  Activity: Active
Setaria faberi [17]
  Activity: inactive
Sorghum bicolor [18]
  Activity: inactive
Zea mays [19]
  Activity: inactive
Fallopia convolvulus [20]
  Activity: Active
Ipomoea hederacea [7]
  Activity: inactive
Amaranthus [8]
  Activity: inactive
Xanthium strumarium [21]
  Activity: Active
Setaria faberi [22]
  Activity: inactive
Sorghum bicolor [11]
  Activity: inactive
Ipomoea hederacea [14]
  Activity: inactive
Echinochloa crus-galli
  Activity: inactive
